Values quoted from earlier work as cited in patent publication US10092573B2, “Gastric and colonic formulations and methods for making and using them” (Salix Pharmaceuticals, Inc., priority 2010, dated 2018).
“Also recorded” adds a separate entry of the source. Read-outs that look alike come from different tables or passages of the source.

Tests used:
[1] = not given; remark: listed apart in the source

SMILES | association with ischemic colitis (10 mg tablet form in combination with HALFLYTELY) | association with ischemic colitis (doses of 20 mg) | ischemic colitis (widespread chronic use at a lower dosage range, often daily, for constipation or bloating) | effect on creatinine, urea or electrolytes (sodium, potassium, chloride, phosphate) output ([1]; 24 hour output, renal) | doses with no recorded significant human gastroenterological side effects ([1]; human) | carcinogenic, mutagenic or teratogenic potential ([1]; in vivo) | share of the ingested erythritol that enters the colon ([1]; in vivo) | systemic metabolism and excretion of absorbed erythritol ([1]; in vivo) | toxicological effects in safety studies ([1]; in vivo)
CC(=O)Oc1ccc(C(c2ccc(OC(C)=O)cc2)c2ccccn2)cc1 [Bisacodyl, 4,4′-(pyridin-2-ylmethylene) bis(4,1-phenylene) diacetate] | less frequently | on rare occasions | No ischemic colitis has been consistently observed or reported |  |  |  |  |  | 
OC[C@@H](O)[C@@H](O)CO [Erythritol, (2R,3S)-butane-1,2,3,4-tetraol] |  |  |  | no effect; also recorded: does not influence | up to 1000 mg/kg body weight/day | does not have any | about 10% | not metabolized systemically and is excreted unchanged in urine | no toxicological effects
